Results from article PMC8850433, “CRISPR-assisted rational flux-tuning and arrayed CRISPRi screening of an L-proline exporter for L-proline hyperproduction” (Nature Communications, 2022).

Molecular target: T1, Cgl2622 (Corynebacterium glutamicum, UniProt Q79VD1)
T1 construct: full-length membrane exporter, expressed from plasmid under IPTG-inducible Ptrc in cgl2622-deleted C. glutamicum
Format: cell-based
Conditions: intact C. glutamicum cells, CGXII medium, 20 g/L glucose, 3 mM Thr-Pro peptide, 30 °C; efflux

T1 sequence (Q79VD1 1-489): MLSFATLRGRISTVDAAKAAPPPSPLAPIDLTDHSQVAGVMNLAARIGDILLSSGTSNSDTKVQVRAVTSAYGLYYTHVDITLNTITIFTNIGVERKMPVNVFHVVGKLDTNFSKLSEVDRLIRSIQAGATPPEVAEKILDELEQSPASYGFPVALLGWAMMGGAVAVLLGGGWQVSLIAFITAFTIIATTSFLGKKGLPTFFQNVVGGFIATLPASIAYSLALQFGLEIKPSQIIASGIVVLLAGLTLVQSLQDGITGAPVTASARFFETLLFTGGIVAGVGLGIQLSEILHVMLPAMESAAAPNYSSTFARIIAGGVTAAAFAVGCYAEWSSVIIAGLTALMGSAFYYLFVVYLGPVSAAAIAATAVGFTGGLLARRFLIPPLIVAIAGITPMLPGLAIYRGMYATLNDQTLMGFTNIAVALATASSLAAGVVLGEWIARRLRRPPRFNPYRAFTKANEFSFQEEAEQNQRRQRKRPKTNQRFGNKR

O=C(O)[C@@H]1CCCN1 [L-proline]
Thr-Pro peptide uptake and amino acid export assay, deletion vs complementation,: These results further verify the function of Cgl2622 as an L-proline exporter.
